Calls of active or inactive are those of the source. No cut-off for these calls is given here. A value given as a limit tells only on which side of the number the result lay.

In ChEMBL document CHEMBL3813662, “Synthesis and biological activity of pyrazole analogues of the staurosporine aglycon K252c” (Bioorg Med Chem, 2016) one finds Activity, IC50 and inhibition data, which are given here for 5 compounds.

The target of experiment [1] is Protein kinase C gamma type (Homo sapiens) (UniProt P05129). The experiment in a line: Inhibition of human full length (His)6-tagged PKCgamma expressed in insect Sf21 cells using histone H1 as substrate assessed as residual enzyme activity at 10 uM measured for 30 mins by [gamma-33P]ATP-based kinase assay.
The target in experiment [2] is Protein kinase C alpha type (Homo sapiens) (UniProt P17252). The experiment in a line: Inhibition of human full length (His)6-tagged PKCalpha expressed in insect Sf21 cells using histone H1 as substrate assessed as residual enzyme activity at 10 uM measured for 30 mins by [gamma-33P]ATP-based kinase assay.
The subject of experiment [3] is K562. The experiment in a line: Cytotoxicity against human K562 cells after 72 hrs by MTT assay. It is filed as functional, cell-based. The settings on record: K562, 72 h. In general terms: Formazan colour is commonly taken as a measure of viable cells.
Experiment [4] concerns the target Protein kinase C alpha type (Homo sapiens) (UniProt P17252). Kind of experiment: Inhibition of human full length (His)6-tagged PKCalpha expressed in insect Sf21 cells using histone H1 as substrate assessed as residual enzyme activity at 1 uM measured for 30 mins by [gamma-33P]ATP-based kinase assay.
In experiment [5] the target is Protein kinase C gamma type (Homo sapiens) (UniProt P05129). Kind of experiment: Inhibition of human full length (His)6-tagged PKCgamma expressed in insect Sf21 cells using histone H1 as substrate assessed as residual enzyme activity at 1 uM measured for 30 mins by [gamma-33P]ATP-based kinase assay.
Experiment [6] deals with T1, Serine/threonine-protein kinase pim-1 (Homo sapiens, UniProt P11309). Kind of experiment: Inhibition of human full length (His)6-tagged Pim-1 expressed in insect Sf21 cells using RSRHSSYPAGT as substrate assessed as residual enzyme activity at 1 uM measured for 30 mins by [gamma-33P]ATP-based kinase assay.
Target sequence in this assay (P11309 whole entry, looked up): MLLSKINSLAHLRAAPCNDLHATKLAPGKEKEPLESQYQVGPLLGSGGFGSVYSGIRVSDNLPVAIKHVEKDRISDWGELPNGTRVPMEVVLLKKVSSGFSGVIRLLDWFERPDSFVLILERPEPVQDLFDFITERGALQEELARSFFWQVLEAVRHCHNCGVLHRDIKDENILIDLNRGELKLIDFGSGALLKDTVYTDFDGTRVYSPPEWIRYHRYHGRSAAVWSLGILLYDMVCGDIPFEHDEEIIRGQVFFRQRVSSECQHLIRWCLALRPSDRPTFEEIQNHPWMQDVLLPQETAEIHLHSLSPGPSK
A short description of experiment [7]: Cytotoxicity against human HCT116 cells after 72 hrs by MTT assay. The conditions noted are these: HCT-116, 72 h. It is filed as functional, cell-based.
Experiment [8] deals with T1, Serine/threonine-protein kinase pim-1. Kind of experiment: Inhibition of human full length (His)6-tagged Pim-1 expressed in insect Sf21 cells using RSRHSSYPAGT as substrate assessed as residual enzyme activity at 10 uM measured for 30 mins by [gamma-33P]ATP-based kinase assay.
Target sequence in this assay (P11309 whole entry, looked up): as above
Experiment [9] concerns the target T2, DNA topoisomerase 1 (Homo sapiens) (UniProt P11387).
T2 sequence (whole entry): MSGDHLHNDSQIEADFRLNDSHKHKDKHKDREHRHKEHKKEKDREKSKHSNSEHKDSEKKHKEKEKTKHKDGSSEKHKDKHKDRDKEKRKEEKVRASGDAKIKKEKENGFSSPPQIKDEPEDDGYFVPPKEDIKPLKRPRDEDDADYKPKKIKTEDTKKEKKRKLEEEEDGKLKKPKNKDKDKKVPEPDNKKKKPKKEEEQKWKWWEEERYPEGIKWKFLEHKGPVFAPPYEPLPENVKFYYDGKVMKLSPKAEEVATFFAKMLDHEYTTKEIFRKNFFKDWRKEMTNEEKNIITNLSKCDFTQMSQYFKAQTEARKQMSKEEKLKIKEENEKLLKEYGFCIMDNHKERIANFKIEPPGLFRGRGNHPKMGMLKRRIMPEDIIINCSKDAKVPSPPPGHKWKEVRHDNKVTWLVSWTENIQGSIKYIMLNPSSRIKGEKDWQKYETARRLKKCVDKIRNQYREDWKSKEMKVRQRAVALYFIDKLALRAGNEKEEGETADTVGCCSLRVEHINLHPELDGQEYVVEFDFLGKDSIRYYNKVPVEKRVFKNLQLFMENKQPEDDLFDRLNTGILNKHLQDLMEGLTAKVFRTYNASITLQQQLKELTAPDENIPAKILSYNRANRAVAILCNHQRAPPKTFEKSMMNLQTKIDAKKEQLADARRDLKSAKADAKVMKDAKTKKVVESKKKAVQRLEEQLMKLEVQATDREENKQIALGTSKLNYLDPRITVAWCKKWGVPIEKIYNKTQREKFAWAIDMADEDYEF
Kind of experiment: Inhibition of human topoisomerase1 activity at 20 uM using pBR322 plasmid DNA as substrate incubated for 30 mins by EtBr-based gel electrophoresis.

Experiment [10] deals with Serine/threonine-protein kinase pim-2 (Homo sapiens, UniProt Q9P1W9). The experiment in a line: Inhibition of human full length GST-tagged Pim-2 expressed in Escherichia coli using RSRHSSYPAGT as substrate measured for 30 mins by [gamma-33P]ATP-based kinase assay.
Experiment [11] concerns Calf thymus DNA. The experiment in a line: Binding affinity to calf thymus double stranded DNA assessed as dsDNA level causing quenching of compound fluorescence by fluorescence spectrophotometric analysis. It is filed as nucleic-acid assay, Bos taurus.
Experiment [12] deals with T1, Serine/threonine-protein kinase pim-1. The experiment in a line: Inhibition of human full length (His)6-tagged Pim-1 expressed in insect Sf21 cells using RSRHSSYPAGT as substrate measured for 30 mins by [gamma-33P]ATP-based kinase assay.
Target sequence in this assay (P11309 whole entry): as the sequence (P11309 whole entry, looked up) above
The subject of experiment [13] is Calf thymus DNA. Kind of experiment: Displacement of EtBr from calf thymus double stranded DNA by fluorescence spectrophotometric analysis. In kind it is nucleic-acid assay, Bos taurus.
For experiment [14], the target named is Serine/threonine-protein kinase pim-3 (Homo sapiens, UniProt Q86V86). Kind of experiment: Inhibition of human full length (His)6-tagged Pim-3 expressed in insect Sf21 cells using RSRHSSYPAGT as substrate measured for 30 mins by [gamma-33P]ATP-based kinase assay.
In experiment [15] the test system is K562. The experiment in a line: Cytotoxicity against human K562 cells. It is filed as functional, cell-based.

Sequence of Serine/threonine-protein kinase pim-2 (Q9P1W9 whole entry): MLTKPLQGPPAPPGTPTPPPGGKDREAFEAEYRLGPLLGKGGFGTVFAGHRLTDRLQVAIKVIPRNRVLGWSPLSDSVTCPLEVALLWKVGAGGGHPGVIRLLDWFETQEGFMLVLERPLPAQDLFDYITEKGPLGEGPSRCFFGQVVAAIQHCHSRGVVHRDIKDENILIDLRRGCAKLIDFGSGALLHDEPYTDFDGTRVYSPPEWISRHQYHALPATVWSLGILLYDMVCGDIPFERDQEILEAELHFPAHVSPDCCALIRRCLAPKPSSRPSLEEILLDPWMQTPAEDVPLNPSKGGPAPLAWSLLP

Turning to `O=c1[nH][nH]c(-c2c[nH]c3ccccc23)c1-c1c[nH]c2ccccc12`, the Activity in experiment [1] is 92%; in experiment [2], 93%; in [4], 117%; in experiment [5], 100%; in experiment [6], 94%; in experiment [8] it was 67%. Moreover, the IC50 (with K562 [3]; in experiment [7]) was more than 50 µM in each case.
Consider `c1ccc2c(c1)[nH]c1c3[nH]c4ccccc4c3c3[nH]ncc3c21`, for which the inhibition entry in experiment [9] was “inactive”. The Activity in [1] turned out to be 91%; in experiment [2] it was 108%; in experiment [4] it was 103%; in experiment [5], 101%; in experiment [6], 13%; in experiment [8], 2%. For the same compound, the IC50 (commonly the concentration needed to halve the response being measured) was 4.5 µM with K562 [3]; 0.59 µM in [10]; 90 µM with Calf thymus DNA [11]; 0.15 µM in [12]; 16 µM in the experiment with Calf thymus DNA [13]; 4.2 µM in experiment [7]. In [14], this compound returned an IC50 of 0.022 µM.
On to `O=C1NCc2c1c1c3ccccc3[nH]c1c1[nH]c3ccccc3c21` [STAUROSPORINONE], for which the IC50 with K562 [15] was found to be 7.8 µM.
As for `O=c1[nH][nH]c2c1c1c3ccccc3[nH]c1c1[nH]c3ccccc3c12`, the Activity is 99% in experiment [1]; 110% in experiment [2]; 107% in experiment [4]; 97% in [5]; 47% in [6]; 8% in experiment [8]. Further, the figures for the IC50 (with K562 [3]; in experiment [7]) were 8.8 µM and 3.5 µM, respectively.
As for `c1ccc2c(-c3cn[nH]c3-c3c[nH]c4ccccc34)c[nH]c2c1`, the Activity in [1] worked out at 91%; in [2] it was 100%; in experiment [4], 112%; in experiment [5] it was 105%; in experiment [6], 98%; in experiment [8], 73%. Also, the IC50 with K562 [3] turned out to be 18 µM; in experiment [7] it was 30 µM.
